Results as given in patent US9623121B2, “Optical-imaging probe for detecting sentinel lymph nodes which contains a composite of poly-gamma-glutamic acid and an optical-imaging dye” (BIOLEADERS CORPORATION, priority 2010, dated 2017).

What was measured:
[1] = Light stability: near-infrared fluorescence intensity of solutions kept at room temperature for 3 days; format: physicochemical; conditions: 50 μl of solution (0.01% ICG) in tube, after 3 days
Experimental: 50 μl of the prepared ICG/γ-PGA complex solution was dispensed into a 1.5 Ml tube, and then the near-infrared fluorescence spectrum thereof was measured using a fluorescence spectrophotometer (FluoroMate FS-2) (see FIG. 1).

[2] = In vivo near-infrared imaging of the sentinel lymph node after subcutaneous footpad injection; design: species or system BALB/c nude mice; conditions: 0.01% solution, 50 μl s.c. into left forefoot, 30 minutes after injection
Experimental: In animal tests, 6-week-old female BALB/c nude mice (SLC Inc., Japan) with no pathogens were used. All the tests were performed under the approval of the Laboratory Animal Center, Chungnam National University.
For data acquisition and analysis, images (see FIG. 3) were obtained using a home-made NIR optical imaging system (see FIG. 2) manufactured by the present inventors. Herein, the near-infrared optical imaging system comprises a light source consisting of a 500 mW fiber-type laser, an emission filter, a lens system equipped with a microzoom, and a near-infrared detector (NIR CCD detector) (see FIG. 2). In the near infrared imaging system, the intensity of fluorescence appears as a pseudo color, and more red fluorescence indicates stronger intensity.
Before imaging, mice were anesthetized by intraperitoneally injecting a 2.5% avertin (2,2,2-tribromoethanol-tert-amyl alcohol, Sigma) solution at a dose of 0.01 Ml/g weight. 50 μl of each of an ICG solution (0.01%), ICG/γ-PGA (50 kDa) complex solutions (0.01%, 0.1% and 1%) and ICG/γ-PGA (7000 kDa) complex solutions (0.01%, 0.1% and 1%) was injected into the left forefoot of each nude mouse (footpad, subcutaneous injection), and after 5 min, 20 min and 30 min, the fluorescence of the sentinel lymph node was measured. […]

fluorescence intensity (light stability) [1]: rapidly decreased
Compound: CC1(C)C(/C=C/C=C/C=C/C=C2\N(CCCCS(=O)(=O)O)c3ccc4ccccc4c3C2(C)C)=[N+](CCCCS(=O)(=O)[O-])c2ccc3ccccc3c21 [ICG, Indocyanine green]
intensity of fluorescence emitted from the sentinel lymph node [2]: very weak
retention in the sentinel lymph node / migration to other lymph nodes [2]: did not remain in the sentinel lymph node and migrated to other lymph node
